[ ]: non-standard residue; d: D form. Aib = CC(C)(N)C(=O)O
How the values were obtained:
[1] = test system: primary human T-cells; experiment: Cytokine secretion on protein level in activated primary human T-cells (13-plex FACS / Luminex, supernatant); assay type: cell-based; conditions: 10^−9M
Procedure, shortened: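 Stimulus: PMA/Ionomycin or IFN-γ, 48 h; cells: HaCaT or human peripheral-blood T-cells; tripeptide treatment; readout: supernatant cytokines via 13-plex FACS or Luminex, 48–72 h post-stimulation.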

[2] = test system: human keratinocyte cell line (HaCaT); experiment: Cytokine secretion on protein level in activated human keratinocyte cell line HaCaT (13-plex FACS / Luminex, supernatant); assay type: cell-based; conditions: for IL-1 cytokine concentration / IL-2 cytokine concentration / IL-4 cytokine concentration / IL-5 cytokine concentration / IL-6 cytokine concentration / IL-9 cytokine concentration / IL-10 cytokine concentration / IL-13 cytokine concentration / IL-17 cytokine concentration / TNF-α cytokine concentration / IL-12p70 cytokine concentration / IL-22 cytokine concentration / IFN-γ cytokine concentration: 10^−9M; for IL-12p70 cytokine concentration / IL-22 cytokine concentration: excluded from the final assessment
Procedure, shortened: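 First, T-cells are isolated from healthy donors' blood. Next, they and HaCaT keratinocytes are activated for 48 h with PMA/Ionomycin or IFN-γ in the presence of tripeptides. Finally, secreted cytokines are quantified in supernatants by 13-plex FACS at 48 and 72 h.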

[3] = test system: primary murine T-cells; experiment: Cytokine secretion on protein level in activated primary murine T-cells (13-plex FACS / Luminex, supernatant); assay type: cell-based, C57BL/6 mice; conditions: 10^−9M
Procedure, shortened: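 T-cells from secondary lymphatic organs of naïve C57BL/6 mice, stimulated with PMA/Ionomycin or IFN-γ; supernatant cytokines measured by 13-plex FACS 48 h and 72 h after stimulation. In another run, PMA/Ionomycin-stimulated cells received compounds at 10^−7, 10^−9 and 10^−11 M, with IFN-γ, IL-17 and IL-10 measured by Luminex.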

[4] = primary human T-cells stimulated with IFN-γ
[5] = primary human T-cells stimulated with PBS
[6] = primary human T-cells stimulated with PMA/Ionomycin
[7] = HaCaT stimulated with PMA/Ionomycin
[8] = primary murine T-cells stimulated with IFN-γ
[9] = primary murine T-cells stimulated with PBS
[10] = primary murine T-cells stimulated with PMA/Ionomycin
[11] = primary murine T-cells stimulated with PMA/Ionomycin, 1:10 dilution of the supernatants

H-Lys-[dP]-[Aib]-OH [Example 1]
IL-1 cytokine concentration [1, 4]: 296.42 pg/mL | IL-2 cytokine concentration [1, 4]: 515.89 pg/mL | IL-4 cytokine concentration [1, 4]: 180.24 pg/mL | IL-5 cytokine concentration [1, 4]: 112.65 pg/mL | IL-6 cytokine concentration [1, 4]: 131.33 pg/mL | IL-9 cytokine concentration [1, 4]: 111.14 pg/mL | IL-10 cytokine concentration [1, 4]: 164.32 pg/mL | IL-12p70 cytokine concentration [1, 4]: 945.16 pg/mL | IL-13 cytokine concentration [1, 4]: 82.57 pg/mL | IL-17 cytokine concentration [1, 4]: 234.65 pg/mL | IL-22 cytokine concentration [1, 4]: 21389.5 pg/mL | TNF-α cytokine concentration [1, 4]: 230.57 pg/mL | IFN-γ cytokine concentration [1, 5]: 634.2 pg/mL | IL-1 cytokine concentration [1, 5]: 398.01 pg/mL | IL-2 cytokine concentration [1, 5]: 545.22 pg/mL | IL-4 cytokine concentration [1, 5]: 198.06 pg/mL | IL-5 cytokine concentration [1, 5]: 275.55 pg/mL | IL-6 cytokine concentration [1, 5]: 85.95 pg/mL | IL-9 cytokine concentration [1, 5]: 131.69 pg/mL | IL-10 cytokine concentration [1, 5]: 107.07 pg/mL | IL-12p70 cytokine concentration [1, 5]: 223.67 pg/mL | IL-13 cytokine concentration [1, 5]: 77.6 pg/mL | IL-17 cytokine concentration [1, 5]: 295.13 pg/mL | IL-22 cytokine concentration [1, 5]: 2227.62 pg/mL | TNF-α cytokine concentration [1, 5]: 203.95 pg/mL | IFN-γ cytokine concentration [1, 6]: 2516.08 pg/mL | IL-1 cytokine concentration [1, 6]: 11244.1 pg/mL | IL-2 cytokine concentration [1, 6]: 12000 pg/mL | IL-4 cytokine concentration [1, 6]: 209.61 pg/mL | IL-5 cytokine concentration [1, 6]: 204.84 pg/mL | IL-6 cytokine concentration [1, 6]: 1868.8 pg/mL | IL-9 cytokine concentration [1, 6]: 159.86 pg/mL | IL-10 cytokine concentration [1, 6]: 3032.66 pg/mL | IL-12p70 cytokine concentration [1, 6]: 925.71 pg/mL | IL-13 cytokine concentration [1, 6]: 398.98 pg/mL | IL-17 cytokine concentration [1, 6]: 2443.34 pg/mL | IL-22 cytokine concentration [1, 6]: 24324.9 pg/mL | TNF-α cytokine concentration [1, 6]: 3600 pg/mL | IL-1 cytokine concentration ([2]; HaCaT stimulated with IFN-γ): 251.36 pg/mL | IL-2 cytokine concentration ([2]; HaCaT stimulated with IFN-γ): 95.81 pg/mL | IL-4 cytokine concentration ([2]; HaCaT stimulated with IFN-γ): 88.93 pg/mL | IL-5 cytokine concentration ([2]; HaCaT stimulated with IFN-γ): 156.74 pg/mL | IL-6 cytokine concentration ([2]; HaCaT stimulated with IFN-γ): 704.01 pg/mL | IL-9 cytokine concentration ([2]; HaCaT stimulated with IFN-γ): 96.1 pg/mL | IL-10 cytokine concentration ([2]; HaCaT stimulated with IFN-γ): 107.72 pg/mL | IL-13 cytokine concentration ([2]; HaCaT stimulated with IFN-γ): 57.99 pg/mL | IL-17 cytokine concentration ([2]; HaCaT stimulated with IFN-γ): 612.41 pg/mL | TNF-α cytokine concentration ([2]; HaCaT stimulated with IFN-γ): 101.29 pg/mL | IL-12p70 cytokine concentration ([2]; HaCaT stimulated with IFN-γ): 1872.11 pg/mL | IL-22 cytokine concentration ([2]; HaCaT stimulated with IFN-γ): 18014.5 pg/mL | IFN-γ cytokine concentration ([2]; HaCaT stimulated with PBS): 373.53 pg/mL | IL-1 cytokine concentration ([2]; HaCaT stimulated with PBS): 224.9 pg/mL | IL-2 cytokine concentration ([2]; HaCaT stimulated with PBS): 87.98 pg/mL | IL-4 cytokine concentration ([2]; HaCaT stimulated with PBS): 85.92 pg/mL | IL-5 cytokine concentration ([2]; HaCaT stimulated with PBS): 181.61 pg/mL | IL-6 cytokine concentration ([2]; HaCaT stimulated with PBS): 77.53 pg/mL | IL-9 cytokine concentration ([2]; HaCaT stimulated with PBS): 112.82 pg/mL | IL-10 cytokine concentration ([2]; HaCaT stimulated with PBS): 166.47 pg/mL | IL-13 cytokine concentration ([2]; HaCaT stimulated with PBS): 64.17 pg/mL | IL-17 cytokine concentration ([2]; HaCaT stimulated with PBS): 562.61 pg/mL | TNF-α cytokine concentration ([2]; HaCaT stimulated with PBS): 87.84 pg/mL | IL-12p70 cytokine concentration ([2]; HaCaT stimulated with PBS): 1881.61 pg/mL | IL-22 cytokine concentration ([2]; HaCaT stimulated with PBS): 18087.5 pg/mL | IFN-γ cytokine concentration [2, 7]: 531 pg/mL | IL-1 cytokine concentration [2, 7]: 118.79 pg/mL | IL-2 cytokine concentration [2, 7]: 184.58 pg/mL | IL-4 cytokine concentration [2, 7]: 78.12 pg/mL | IL-5 cytokine concentration [2, 7]: 141.02 pg/mL | IL-6 cytokine concentration [2, 7]: 131.98 pg/mL | IL-9 cytokine concentration [2, 7]: 108.97 pg/mL | IL-10 cytokine concentration [2, 7]: 48.13 pg/mL | IL-13 cytokine concentration [2, 7]: 49.03 pg/mL | IL-17 cytokine concentration [2, 7]: 449.68 pg/mL | TNF-α cytokine concentration [2, 7]: 77.12 pg/mL | IL-12p70 cytokine concentration [2, 7]: 0 pg/mL | IL-22 cytokine concentration [2, 7]: 8956.12 pg/mL | secretion / expression of pro-inflammatory cytokines (supernatant) ([2]; activated human keratinocytes): decreased secretion | IL-1 cytokine concentration [3, 8]: 0 pg/mL | IL-2 cytokine concentration [3, 8]: 0 pg/mL | IL-4 cytokine concentration [3, 8]: 0 pg/mL | IL-5 cytokine concentration [3, 8]: 0 pg/mL | IL-6 cytokine concentration [3, 8]: 6.51 pg/mL | IL-10 cytokine concentration [3, 8]: 0 pg/mL | IL-13 cytokine concentration [3, 8]: 0 pg/mL | IL-17 cytokine concentration [3, 8]: 10.81 pg/mL | IL-21 cytokine concentration [3, 8]: 0 pg/mL | IL-22 cytokine concentration [3, 8]: 0 pg/mL | IL-27 cytokine concentration [3, 8]: 179.72 pg/mL | TNF-α cytokine concentration [3, 8]: 0 pg/mL | IFN-γ cytokine concentration [3, 9]: 0 pg/mL | IL-1 cytokine concentration [3, 9]: 53.09 pg/mL | IL-2 cytokine concentration [3, 9]: 0 pg/mL | IL-4 cytokine concentration [3, 9]: 0 pg/mL | IL-5 cytokine concentration [3, 9]: 0 pg/mL | IL-6 cytokine concentration [3, 9]: 0 pg/mL | IL-10 cytokine concentration [3, 9]: 110.76 pg/mL | IL-13 cytokine concentration [3, 9]: 0 pg/mL | IL-17 cytokine concentration [3, 9]: 0 pg/mL | IL-21 cytokine concentration [3, 9]: 0 pg/mL | IL-22 cytokine concentration [3, 9]: 0 pg/mL | IL-27 cytokine concentration [3, 9]: 379.78 pg/mL | TNF-α cytokine concentration [3, 9]: 0 pg/mL | IL-1 cytokine concentration [3, 10]: 60.61 pg/mL | IL-4 cytokine concentration [3, 10]: 0 pg/mL | IL-5 cytokine concentration [3, 10]: 292.17 pg/mL | IL-6 cytokine concentration [3, 10]: 239.47 pg/mL | IL-10 cytokine concentration [3, 10]: 145.26 pg/mL | IL-13 cytokine concentration [3, 10]: 3898.42 pg/mL | IL-17 cytokine concentration [3, 10]: 459.99 pg/mL | IL-21 cytokine concentration [3, 10]: 0 pg/mL | IL-22 cytokine concentration [3, 10]: 526.42 pg/mL | IL-27 cytokine concentration [3, 10]: 426.79 pg/mL | TNF-α cytokine concentration [3, 10]: 535.51 pg/mL | IFN-γ* cytokine concentration [3, 11]: 0 pg/mL | IL-2* cytokine concentration [3, 11]: 1354.76 pg/mL
